Results on seven compounds are retold here after patent US20090203739A1, “Anti-Inflammatory Agents” (priority 2005, published 2009).

Bridges are numbered along the chain shown (N, C = ends). Where no end group is shown, it is not given here. [ ]: non-standard residue; d: D form.

Series [1] is described as follows: Stability in serum. Type of series: in vitro ADME. The conditions noted are these: 37° C., completely stable. From the text:
As an approach to identifying such stable analogs, various derivatives of (S)-3-(undec-10-enoyl)-aminoglutarimide have been tested for their stability in serum.

Series [2] deals with chemokine-induced migration. The conditions noted are these: versus (S)-3-(undec-10-enoyl)-aminoglutarimide; cited from earlier work.
In series [3] the test system is MCP-1 induced leukocyte migration (THP-1 cells). Put plainly: Inhibition of MCP-1 induced leukocyte migration (96-well transwell assay, THP-1 cells). Type of series: cell-based. The conditions noted are these: Homo sapiens, MCP-1 25 ng/ml, 2 hours at 37° C., read-out: ED50 (concentration of compound required to reduce the MCP-1-induced migration by 50%). On the procedure: In principle, this assay consists of two chambers separated by a porous membrane. The chemoattractant is placed in the lower compartment and the cells are placed in the upper compartment. After incubation for a period at 37° C. the cells move towards the chemoattractant, and the number of cells in the lower compartment is proportional to the chemoattractant activity (relative to a series of controls).
The THP-1 cell line (European Cell culture Collection) were used as the leukocyte cell population.
The following procedure is used for testing the invention compounds for MCP-1 induced leukocyte migration:
First, the cell suspension to be placed in the upper compartment is prepared. The THP-1 cells are pelleted by centrifugation (770×g; 4 mins) and washed with Geys Balanced Salt Solution with 1 mg/ml BSA (GBSS+BSA). This wash is then repeated, and the cells repelleted before being resuspended in a small volume of GBSS+BSA for counting, for example using a standard haemocytometer.
The volume of GBSS+BSA is then adjusted depending on the number of cells present so that the cells are at final density of 4.45×10^6 cells per ml of GBSS+BSA. This ensures that there are […] THP-1 cells in each 25 μl of the solution that will be placed in the upper chamber of the plate.
To test a single compound for its ability to inhibit MCP-1 induced migration, it is necessary to prepare two lots of cells. The suspension of THP-1 cells at 4.45×10^6 cells/ml is divided into two pots. To one pot the inhibitor under test is added at an appropriate final concentration, in an appropriate vehicle (for example at 1 μM in not more than 1% DMSO). To the second pot an equal volume of GBSS+BSA plus vehicle as appropriate (e.g. not more than 1% DMSO) is added to act as a control.
Next, the chemoattractant solution to be placed in the lower compartment is prepared. MCP-1 is diluted in GBSS+BSA to give a final concentration of 25 ng/ml. This is divided into two pots, as for the cell suspension. To one pot, the test compound is added to the same final concentration as was added to the cell suspension, while to the other pot an equal volume of GBSS+BSA plus vehicle as appropriate (e.g. not more than 1% DMSO) is added.
Note that the volume of liquid that needs to be added to make the addition of the text compound needs to be taken into account, when establishing the final concentration of MCP-1 in the solution for the lower compartment and the final concentration of cells in the upper compartment.
Once the chemoattractant solutions for the lower wells and cell solutions for the upper chambers have been prepared, the migration chamber should be assembled. Place 29 μl of the appropriate chemoattractant solution into the lower well of the chamber. Assays should be performed with at least triplicate determinations of each condition. Once all the lower chambers have been filled, apply the prous membrane to the chamber in accordance with the manufacturer's instructions. Finally, apply 25 μl of the appropriate cell solution to each upper chamber. A plastic lid is placed over the entire apparatus to prevent evaporation.
The assembled chamber is incubated at 37° C., 5% CO2, for 2 hours. A suspension of cells in GBSS+BSA is also incubated under identical conditions in a tube: these cells will be used to construct a standard curve for determining the number of cells that have migrated to the lower chamber under each condition. […]

The conditions of series [4]: cited from earlier work.

For the compound `C=CCCCCCCCCC(=O)[C@@H]1CCCNC1=O` [(S)-3-(undec-10-enoyl)-tetrahydropyridin-2-one], in series [1], the “stability in human serum” value is recorded as “at least 7 days”. Further, in series [2], the “potency compared with the parental molecule” value is listed as “considerably reduced potency”. As to `CCCCCCCCCCC(C)(C)C(=O)N[C@H]1CCCNC1=O` [Example 3, (S)-3-(2′,2′-Dimethyldodecanoylamino)-tetrahydropyridin-2-one], the EC50 in series [3] is at most 100 nM. On the same count and under the same terms, in the case of `CCCCCCCCCCC(C)(C)C(=O)N[C@H]1CCNC1=O` [Example 4, (S)-3-(2′,2′-Dimethyldodecanoylamino)-pyrrolidin-2-one] it was at most 100 nM.

With `CC1(C(=O)N[C@H]2CCCNC2=O)CCCCC1` [Example 5, (S)-3-(1′-Methylcyclohexanecarbonyl)amino-tetrahydropyridin-2-one], the EC50 in series [3] is at most 100 nM. For the compound `CC1(C(=O)N[C@H]2CCNC2=O)CCCCC1` [Example 6, (S)-3-(1′-Methylcyclohexanecarbonyl)amino-pyrrolidin-2-one], the EC50 in series [3] was at most 100 nM. Still for that read-out and setting: as for `O=C1NCCC[C@@H]1NC(=O)C1(c2ccccc2)CCCCC1` [Example 7, (S)-3-(1′-Phenylcyclohexanecarbonyl)amino-tetrahydropyridin-2-one], the figure is at most 100 nM. With “c(DCys-DGln-DIle-DTrp-DLys-DGln-DLys-DPro-DAsp-DLeu-DCys)-NH2 ([dC][dQ][dI][dW][dK][dQ][dK][dP][dD][dL][dC]-NH2; disulfide 1-11 (inferred)) [NR58-3.14.3]”, the “half-life period of clearance from blood plasma” value in series [4] (after intravenous injection) is recorded as “less than 30 minutes”. For the same compound, the oral bioavailability entry in series [4] (in vivo, po) is on record as “not orally bioavailable”.
